Test results from EP2914280B1, “SOMATOSTATIN-DOPAMINE CHIMERIC ANALOGS” (IPSEN PHARMA S.A.S., priority 2012, dated 2014).
Like-named read-outs stand apart in the source and are kept apart here. Numbered stars: 1 amine (or outer) side, 2 acyl side, 3 side chain; on linkers, the order of the positions; unused ones are H or OH. Bridge positions count the residues as written; N and C are the ends. Square brackets hold non-standard residues; d marks the D form. Peptide text beside a SMILES is read from it. * marks the point of attachment. X1 = CN1C[C@H](CSCCN(CCSC[C@@H]2C[C@@H]3c4cccc5[nH]cc(c45)C[C@H]3N(C)C2)[C@H](CCCCN[*:2])C(=O)[*:1])C[C@@H]2c3cccc4[nH]cc(c34)C[C@H]21; X2 = CN1C[C@H](CSCC(=O)*)C[C@@H]2c3cccc4[nH]cc(c34)C[C@H]21; 4Pal = N[C@@H](Cc1ccncc1)C(=O)O

Legend:
hSSTR2 [1] = target: T1, hSSTR2 (Homo sapiens, UniProt P30874); assay: Intracellular calcium mobilization assay (FLIPR Calcium 4), hSSTR2; format: cell-based; conditions: for improvement in EC50 over Reference Compound A: p value (Student's t-test, one-tailed) < 0.05;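 on all read-outs here: agonist activity measured in cells expressing hSSTR2, seeded in 384-well plates, loaded with Calcium 4 dye, read-out as rise in intracellular calcium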
T1 construct: host or cells: 'Cells expressing hSSTR2'
T1 sequence (P30874 whole entry): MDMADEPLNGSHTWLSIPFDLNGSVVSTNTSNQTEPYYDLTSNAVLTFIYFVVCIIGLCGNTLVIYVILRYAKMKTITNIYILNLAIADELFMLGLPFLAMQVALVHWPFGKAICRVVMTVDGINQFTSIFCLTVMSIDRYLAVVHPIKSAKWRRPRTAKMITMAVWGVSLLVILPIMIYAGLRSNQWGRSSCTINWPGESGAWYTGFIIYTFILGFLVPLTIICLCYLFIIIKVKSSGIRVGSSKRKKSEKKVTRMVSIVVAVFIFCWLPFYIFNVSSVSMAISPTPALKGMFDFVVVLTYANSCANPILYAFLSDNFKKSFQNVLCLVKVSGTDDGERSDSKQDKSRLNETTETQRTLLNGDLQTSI
Procedure: The ability of select compounds according to the present invention to activate hSSTR2 and hDRD2 was determined by the intracellular calcium mobilization assay using FLIPR Calcium 4 assay kit (Molecular Devices).
Cells expressing hSSTR2 or hDRD2 were plated in 384-well microplates in tissue culture media and incubated for 16-24 hours at 37°C in a humidified atmosphere with 5% CO2. Medium was replaced by loading buffer containing Hank's buffered saline, 20 mM HEPES, 2.5 mM probenecid and Calcium 4 dye, and the plates were incubated at 37°C for 60 minutes.

hSSTR5 = target: T2, hSSTR5 (Homo sapiens, UniProt P35346); assay: Somatostatin receptor radioligand binding assay (hSSTR5); conditions: CHO-K1 cell membranes; 0.05 nM [125I-Tyr]-[DPhe-cyclo(Cys-Tyr-DTrp-Lys-Val-Cys)-Thr-NH2]; 60 minutes at 25°C; read-out: hSSTR5 Ki (nM) ± SEM
T2 construct: expressed in transfected cells; host or cells: CHO-K1 (ATCC), pcDNA3.1, G418-selected clonal line; membranes
T2 sequence (P35346 whole entry): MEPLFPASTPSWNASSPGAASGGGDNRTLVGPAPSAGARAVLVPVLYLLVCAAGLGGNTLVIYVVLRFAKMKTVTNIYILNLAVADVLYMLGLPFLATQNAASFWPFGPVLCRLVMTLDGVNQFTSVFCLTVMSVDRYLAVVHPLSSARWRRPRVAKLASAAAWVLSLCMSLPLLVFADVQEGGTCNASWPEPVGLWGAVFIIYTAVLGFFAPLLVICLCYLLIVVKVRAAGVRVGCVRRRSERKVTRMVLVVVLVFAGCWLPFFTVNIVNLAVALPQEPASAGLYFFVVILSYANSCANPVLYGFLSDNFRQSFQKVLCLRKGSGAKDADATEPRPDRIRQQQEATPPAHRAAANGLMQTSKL
Procedure: (§1) The affinities of a test compound for the human somatostatin receptors were determined by radioligand binding assays in CHO-K1 cells stably transfected with each of the human somatostatin receptor subtypes, hSSTR1-5. […] Clonal cell lines stably expressing each of the somatostatin receptors were obtained by transfection into CHO-K1 cells (ATCC) and subsequently selected with culture media containing 0.8 mg/mL of G418 (Life Technologies).
(§2) Membranes for in vitro receptor binding assays were obtained by the following procedures. […] The supernatant containing the plasma membranes was centrifuged at 100,000 x g for 30 minutes and the pellet was resuspended in buffer containing 20 mM glycine-glycine, 1 mM MgCl2, 250 mM sucrose, pH 7.2, for storage at -80°C.
(§3) For the SSTR1, 2 and 5 assays, membranes and various concentrations of test compounds were incubated in 96-well plates for 60 minutes at 25°C with 0.05 nM [^125I-Tyr^11]-SRIF-14 (for hSSTR1; PerkinElmer Life Science), 0.05 nM [^125I-Tyr]-seglitide (for hSSTR2; PerkinElmer Life Science) or 0.05 nM [^125I-Tyr]-[DPhe-cyclo(Cys-Tyr-DTrp-Lys-Val-Cys)-Thr-NH2] (for hSSTR5; PerkinElmer Life Science) in 50 mM HEPES, 0.2% BSA, 0.1 mM MgCl2, pH 7.5.
(§4) The incubations were terminated by rapid filtration through GF/C glass microfiber filter plates (pre-wet with 0.3% polyethyleneimine and 0.1 % BSA) using a 96-well cell harvester (Brandel). Plates were washed six times with 1 mL/well aliquots of ice-cold buffer containing 50 mM Tris buffer, pH 7.7. Specific binding was defined as the total radioligand bound minus the bound in the presence of 1000 nM SRIF-14.

hSSTR2 [2] = target: T1, hSSTR2; assay: Somatostatin receptor radioligand binding assay (hSSTR2);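 further: radioligand displacement on membranes of CHO-K1 cells stably transfected with human SSTR2, specific binding taken as total minus binding left with 1000 nM SRIF-14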
Procedure: as §1, §2, §3, §4

hDRD2 [3] = target: T3, hDRD2 (Homo sapiens, UniProt P14416); assay: cell-based; parameters: host or cells: 'Cells expressing hDRD2'; conditions: for Emax: read-out: hDRD2 %Emax ± SEM
T3 sequence (P14416 whole entry): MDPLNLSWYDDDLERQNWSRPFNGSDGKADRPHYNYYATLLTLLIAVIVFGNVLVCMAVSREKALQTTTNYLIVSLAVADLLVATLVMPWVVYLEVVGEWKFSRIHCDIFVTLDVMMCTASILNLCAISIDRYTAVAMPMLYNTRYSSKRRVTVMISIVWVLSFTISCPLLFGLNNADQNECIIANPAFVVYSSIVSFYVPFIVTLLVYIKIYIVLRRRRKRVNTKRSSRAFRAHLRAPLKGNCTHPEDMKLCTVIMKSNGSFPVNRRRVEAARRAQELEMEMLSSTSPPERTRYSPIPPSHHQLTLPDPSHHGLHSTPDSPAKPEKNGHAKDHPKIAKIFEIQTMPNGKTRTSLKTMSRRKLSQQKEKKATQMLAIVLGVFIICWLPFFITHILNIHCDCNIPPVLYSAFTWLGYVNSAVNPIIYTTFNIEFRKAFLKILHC

hSSTR1 = target: T4, hSSTR1 (Homo sapiens, UniProt P30872); assay: Somatostatin receptor radioligand binding assay (hSSTR1)
T4 construct: expressed in transfected cells; host or cells: CHO-K1 (ATCC), pcDNA3.1, G418-selected clonal line; membranes
T4 sequence (P30872 whole entry): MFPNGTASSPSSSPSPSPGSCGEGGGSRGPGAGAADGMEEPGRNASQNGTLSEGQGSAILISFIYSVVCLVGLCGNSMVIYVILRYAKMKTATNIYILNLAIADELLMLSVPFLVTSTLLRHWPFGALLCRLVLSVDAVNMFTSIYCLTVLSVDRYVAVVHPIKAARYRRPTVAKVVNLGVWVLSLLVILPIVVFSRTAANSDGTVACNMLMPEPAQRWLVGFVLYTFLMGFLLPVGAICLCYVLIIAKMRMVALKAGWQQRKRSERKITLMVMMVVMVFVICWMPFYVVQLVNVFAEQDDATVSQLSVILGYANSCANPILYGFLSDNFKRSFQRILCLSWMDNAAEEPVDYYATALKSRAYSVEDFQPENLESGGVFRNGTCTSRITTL
Procedure: as §1, §2, §3, §4

hDRD2 [4] = target: T3, hDRD2; assay: biochemical; format: binding; parameters: expressed in transfected cells; host or cells: CHO-K1, pcDNA3.1/GS, zeocin-selected clonal line; membranes
[5] = CHO-K1 cell membranes, 0.05 nM [125I-Tyr]-seglitide, 60 minutes at 25°C, read-out: hSSTR2 Ki (nM) ± SEM
[6] = CHO-K1 cell membranes, 0.05 nM [125I-Tyr11]-SRIF-14, 60 minutes at 25°C, read-out: hSSTR1 Ki (nM) ± SEM
[7] = CHO-K1 cell membranes, […] [3H]-spiperone, 60 minutes at 25°C, read-out: hDRD2 Ki (nM) ± SEM
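Wherever Emax is given: agonist activity at human DRD2 in DRD2-expressing cells, read as intracellular calcium mobilization with a FLIPR Calcium 4 fluorescent dye.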

Row | SMILES | EC50 (hSSTR2 [1]) [nM] | Ki (hSSTR5) [nM] | Ki (hSSTR2 [2]) [nM] | EC50 (hDRD2 [3]) [nM] | Emax (hDRD2 [3]) [%] | Ki (hSSTR1) [nM] | Ki (hDRD2 [4]) [nM] | improvement in EC50 over Reference Compound A (hSSTR2 [1]; receptor not named) | improvement in %Emax over Reference Compound C (hSSTR2 [1]; receptor not named) | Ki (hSSTR2 [2]; [5]) [nM] | Ki (hSSTR1; [6]) [nM] | Ki (hDRD2 [4]; [7]) [nM] | EC50 value lower than that for Reference Compound A (hSSTR2 [1]; ratio to Reference Compound A, receptor not named, figures fit hSSTR2) | improvement in EC50 and/or %Emax over Reference Compound B (hSSTR2 [1]; receptor not named)
1 | C[C@@H](O)[C@@H]1NC(=O)[C@H](CCCCN)NC(=O)[C@@H](Cc2c[nH]c3ccccc23)NC(=O)[C@H](Cc2ccncc2)NC(=O)[C@H](Cc2ccccc2)NC(=O)[C@H](CCCNC(=N)N)NC(=O)[C@H](NC[C@H](CCCCNC(=O)C[S+]([O-])C[C@@H]2C[C@@H]3c4cccc5[nH]cc(c45)C[C@H]3N(C)C2)NC(=O)C[S+]([O-])C[C@@H]2C[C@@H]3c4cccc5[nH]cc(c45)C[C@H]3N(C)C2)CCCCNC(=O)[C@H](Cc2ccccc2)NC1=O (stereo partly drawn) [Compound 17, Dop1(SO)-Lys[Dop1(SO)]-psi(CH2NH)-cyclo(DLys-Arg-Phe-4Pal-DTrp-Lys-Thr-Phe)] | 10.3 ± 2 | 0.86 | 0.08 ± 0.05 | 10.2 ± 2.2 | 96.9 ± 1.2 | 91.4 | 67.6 ± 18.4 |  |  |  |  |  |  | 
2 | C[C@@H](O)[C@@H]1NC(=O)[C@H](CCCCN)NC(=O)[C@@H](Cc2c[nH]c3ccccc23)NC(=O)[C@H](Cc2ccncc2)NC(=O)[C@H](Cc2ccccc2)NC(=O)[C@H](CCCNC(=N)N)NC(=O)[C@H](NC(=O)CSC[C@@H]2C[C@@H]3c4cccc5[nH]cc(c45)C[C@H]3N(C)C2)CCCCNC(=O)[C@H](Cc2ccc(O)cc2)NC1=O [Compound 25, Dop1-cyclo(DLys-Arg-Phe-4Pal-DTrp-Lys-Thr-Tyr)] (X2-[dK]RF[4Pal][dW]KTY; lactam 1-C) | 3.4 ± 1 | 0.95 ± 0.1 | 0.05 ± 0.01 | 27 ± 3.3 | 82.5 ± 7.6 | 41.9 ± 17.6 | 272 ± 119 | statistically significant improvement in EC50 |  |  |  |  |  | 
3 | C[C@@H](O)[C@@H]1NC(=O)[C@H](CCCCN)NC(=O)[C@@H](Cc2c[nH]c3ccccc23)NC(=O)[C@H](Cc2ccccc2)NC(=O)[C@H](Cc2ccccc2)NC(=O)[C@H](CCCNC(=N)N)NC(=O)[C@H](NC[C@H](CCCCNC(=O)CSC[C@@H]2C[C@@H]3c4cccc5[nH]cc(c45)C[C@H]3N(C)C2)NC(=O)CSC[C@@H]2C[C@@H]3c4cccc5[nH]cc(c45)C[C@H]3N(C)C2)CCCCNC(=O)[C@H](Cc2ccc(F)cc2)NC1=O [Compound 47, Dop1-Lys(Dop1)-psi(CH2NH)-cyclo(DLys-Arg-Phe-Phe-DTrp-Lys-Thr-4FPhe)] |  |  |  |  | 92.5 ± 0.8 |  |  |  | statistically significant improvement in %Emax | 0.58 ± 0.27 | 29 | 84.2 ± 7.5 |  | 
4 | C[C@@H](O)[C@@H]1NC(=O)[C@H](CCCCN)NC(=O)[C@@H](Cc2c[nH]c3ccccc23)NC(=O)[C@H](Cc2ccccc2)NC(=O)[C@H](Cc2ccccc2)NC(=O)[C@H](CCCNC(=N)N)NC(=O)[C@H](NC[C@H](Cc2ccc(O)cc2)NC(=O)C[S+]([O-])C[C@@H]2C[C@@H]3c4cccc5[nH]cc(c45)C[C@H]3N(C)C2)CCCCNC(=O)[C@H](Cc2ccc(F)cc2)NC1=O (stereo partly drawn) [Compound 13, Dop1(SO)-Tyr-psi(CH2NH)-cyclo(DLys-Arg-Phe-Phe-DTrp-Lys-Thr-4FPhe)] | 1.6 ± 0.1 | 0.23 | 0.04 ± 0.02 | 9.2 ± 2.7 | 93.9 ± 4.5 | 8.6 | 32.5 ± 8.9 |  |  |  |  |  |  | 
5 | C[C@@H](O)[C@@H]1NC(=O)[C@H](CCCCN)NC(=O)[C@@H](Cc2c[nH]c3ccccc23)NC(=O)[C@H](Cc2ccncc2)NC(=O)[C@H](Cc2ccccc2)NC(=O)[C@H](CCCNC(=N)N)NC(=O)[C@H](NC(=O)CSC[C@@H]2C[C@@H]3c4cccc5[nH]cc(c45)C[C@H]3N(C)C2)CCCCNC(=O)[C@H](Cc2ccccc2)NC1=O [Compound 24, Dop1-cyclo(DLys-Arg-Phe-4Pal-DTrp-Lys-Thr-Phe)] (X2-[dK]RF[4Pal][dW]KTF; lactam 1-C) |  | 2.39 |  |  | 87.8 ± 4 |  |  | statistically significant improvement in EC50 |  | 0.08 ± 0.01 | 47.7 ± 30.7 | 175 ± 25.6 | about 9 fold | 
6 | C[C@@H](O)[C@@H]1NC(=O)[C@H](CCCCN)NC(=O)[C@@H](Cc2c[nH]c3ccccc23)NC(=O)[C@H](Cc2ccncc2)NC(=O)[C@H](Cc2ccccc2)NC(=O)[C@H](CCCNC(=N)N)NC(=O)[C@H](NCCS(=O)(=O)C[C@@H]2C[C@@H]3c4cccc5[nH]cc(c45)C[C@H]3N(C)C2)CCCCNC(=O)[C@H](Cc2ccc(O)cc2)NC1=O [Compound 20, Dop1(SO2)-psi(CH2NH)-cyclo(DLys-Arg-Phe-4Pal-DTrp-Lys-Thr-Tyr)] |  | 0.33 |  |  | 101.5 ± 0.6 |  |  |  |  | 0.02 ± 0.01 | 689 | 115 ± 41.3 |  | 
7 | C[C@@H](O)[C@@H]1NC(=O)[C@H](CCCCN)NC(=O)[C@@H](Cc2c[nH]c3ccccc23)NC(=O)[C@H](Cc2ccncc2)NC(=O)[C@H](Cc2ccccc2)NC(=O)[C@H](CCCNC(=N)N)NC(=O)[C@H](N(CCSC[C@@H]2C[C@@H]3c4cccc5[nH]cc(c45)C[C@H]3N(C)C2)CCSC[C@@H]2C[C@@H]3c4cccc5[nH]cc(c45)C[C@H]3N(C)C2)CCCCNC(=O)[C@H](Cc2ccccc2)NC1=O [Compound 29, bis[Dop1-psi(CH2N)]-cyclo(DLys-Arg-Phe-4Pal-DTrp-Lys-Thr-Phe)] (RF[4Pal][dW]KTF; linker N-C via X1) | 12.1 ± 0.7 | 2.37 | 0.14 ± 0.02 | 254 ± 111 | 89 ± 4.5 | 26.7 | 135 ± 66.1 | statistically significant improvement in EC50 |  |  |  |  |  | 
8 | C[C@@H](O)[C@@H]1NC(=O)[C@H](CCCCN)NC(=O)[C@@H](Cc2c[nH]c3ccccc23)NC(=O)[C@H](Cc2ccccc2)NC(=O)[C@H](Cc2ccccc2)NC(=O)[C@H](CCCNC(=N)N)NC(=O)[C@H](NCCS(=O)(=O)C[C@@H]2C[C@@H]3c4cccc5[nH]cc(c45)C[C@H]3N(C)C2)CCCCNC(=O)[C@H](Cc2ccc(F)cc2)NC1=O [Compound 10, Dop1(SO2)-psi(CH2NH)-cyclo(DLys-Arg-Phe-Phe-DTrp-Lys-Thr-4FPhe)] | 19.4 ± 2 | 0.16 ± 0.1 | 0.17 ± 0.05 | 24 ± 4.5 | 92.8 ± 4 | 6.6 | 56.4 ± 11.2 |  |  |  |  |  |  | 
9 | C[C@@H](O)[C@@H]1NC(=O)[C@H](CCCCN)NC(=O)[C@@H](Cc2c[nH]c3ccccc23)NC(=O)[C@H](Cc2ccccc2)NC(=O)[C@H](Cc2ccccc2)NC(=O)[C@H](CCCNC(=N)N)NC(=O)[C@H](NC[C@H](Cc2ccc(O)cc2)NC(=O)CSC[C@@H]2C[C@@H]3c4cccc5[nH]cc(c45)C[C@H]3N(C)C2)CCCCNC(=O)[C@H](Cc2ccccc2)NC1=O [Compound 32, Dop1-Tyr-psi(CH2NH)-cyclo(DLys-Arg-Phe-Phe-DTrp-Lys-Thr-Phe)] | 13.6 ± 3.4 | 1.58 | 0.28 ± 0.07 | 35.6 ± 2.4 | 102 ± 12.8 | 5.3 ± 2.9 | 44 ± 1 |  |  |  |  |  |  | statistically significant improvement in EC50 and/or %Emax
10 | C[C@@H](O)[C@@H]1NC(=O)[C@H](CCCCN)NC(=O)[C@@H](Cc2c[nH]c3ccccc23)NC(=O)[C@H](Cc2ccncc2)NC(=O)[C@H](Cc2ccccc2)NC(=O)[C@H](CCCNC(=N)N)NC(=O)[C@H](NC[C@H](Cc2ccc(O)cc2)NC(=O)C[S+]([O-])C[C@@H]2C[C@@H]3c4cccc5[nH]cc(c45)C[C@H]3N(C)C2)CCCCNC(=O)[C@H](Cc2ccccc2)NC1=O (stereo partly drawn) [Compound 15, Dop1(SO)-Tyr-psi(CH2NH)-cyclo(DLys-Arg-Phe-4Pal-DTrp-Lys-Thr-Phe)] | 1.6 ± 0.3 | 0.08 | 0.02 ± 0.01 | 7.4 ± 0.4 | 94.6 ± 0.8 | 64.4 | 149 ± 11.3 |  |  |  |  |  |  | 
11 | C[C@@H](O)[C@@H]1NC(=O)[C@H](CCCCN)NC(=O)[C@@H](Cc2c[nH]c3ccccc23)NC(=O)[C@H](Cc2ccccc2)NC(=O)[C@H](Cc2ccccc2)NC(=O)[C@H](CCCNC(=N)N)NC(=O)[C@H](NC[C@H](Cc2ccc(O)cc2)NC(=O)CSC[C@@H]2C[C@@H]3c4cccc5[nH]cc(c45)C[C@H]3N(C)C2)CCCCNC(=O)[C@H](Cc2ccc(O)cc2)NC1=O [Compound 33, Dop1-Tyr-psi(CH2NH)-cyclo(DLys-Arg-Phe-Phe-DTrp-Lys-Thr-Tyr)] | 13.8 ± 5 | 0.82 ± 0.4 | 0.24 ± 0.1 | 51.8 ± 20.6 | 102 ± 12.5 | 10.4 ± 3.2 | 15 ± 2.6 |  |  |  |  |  |  | statistically significant improvement in EC50 and/or %Emax
12 | C[C@@H](O)[C@@H]1NC(=O)[C@H](CCCCN)NC(=O)[C@@H](Cc2c[nH]c3ccccc23)NC(=O)[C@H](Cc2ccncc2)NC(=O)[C@H](Cc2ccccc2)NC(=O)[C@H](CCCNC(=N)N)NC(=O)[C@H](NCC[S@+]([O-])C[C@@H]2C[C@@H]3c4cccc5[nH]cc(c45)C[C@H]3N(C)C2)CCCCNC(=O)[C@H](Cc2ccc(O)cc2)NC1=O [Compound 11, Dop1[(R)SO]-psi(CH2NH)-cyclo(DLys-Arg-Phe-4Pa1-DTrp-Lys-Thr-Tyr)] | 2.4 ± 0.4 | 0.09 | 0.05 | 6.4 ± 0.9 | 106 ± 3.5 | 160 ± 22.5 | 79.7 ± 21.4 |  |  |  |  |  |  | 
